{"source": "patent US12668770B2", "about": "(priority 2017, dated 2026)", "key": {"[1]": {"tested_on": "WT strain of Nannochloropsis oculata NIES-2145", "type": "cell-based", "set-up": "key to viability, WT strain: −: Not grown; +: Suppressed in growth, (somewhat) dye fading; ++: Suppressed in growth; +++: Fully grown"}, "[2]": {"tested_on": "ΔNRTΔNR strain (NRT-NR gene-disrupted strain)", "type": "cell-based, Nannochloropsis oculata", "set-up": "key to viability, ΔNRTΔNR strain: −: Not grown; +: Suppressed in growth, (somewhat) dye fading; ++: Suppressed in growth; +++: Fully grown"}, "[3]": {"tested_on": "ΔNR strain (NR gene-disrupted strain)", "type": "cell-based, Nannochloropsis oculata", "set-up": "key to viability, ΔNR strain: −: Not grown; +: Suppressed in growth, (somewhat) dye fading; ++: Suppressed in growth; +++: Fully grown"}, "[4]": {"tested_on": "ΔNRT strain (NRT gene-disrupted strain)", "type": "cell-based, Nannochloropsis oculata", "set-up": "key to viability, ΔNRT strain: −: Not grown; +: Suppressed in growth, (somewhat) dye fading; ++: Suppressed in growth; +++: Fully grown"}}, "data": [{"compound": "[K+].[O-][Cl+2]([O-])[O-]", "note": "[KClO3, potassium chlorate]", "values": [{"measurement": "growth of WT strain on chloric acid-containing agar medium (FIG. 7)", "setting": "[1]", "value": "killed"}, {"measurement": "viability, WT strain", "setting": "[1]", "value": "−"}, {"measurement": "growth of ΔNRTΔNR strain (Table 2)", "setting": "[2]", "value": "growth was able to be achieved"}, {"measurement": "growth of ΔNRTΔNR strain on chloric acid-containing agar medium (FIG. 7)", "setting": "[2]", "value": "more favorable growth was observed"}, {"measurement": "viability, ΔNRTΔNR strain", "setting": "[2]", "value": "+ and +++ and ++"}, {"measurement": "growth of ΔNR strain on chloric acid-containing agar medium (FIG. 7)", "setting": "[3]", "value": "growth was unable to be confirmed"}, {"measurement": "viability, ΔNR strain", "setting": "[3]", "value": "−"}, {"measurement": "growth of ΔNRT strain (Table 2)", "setting": "[4]", "value": "growth was confirmed"}, {"measurement": "growth of ΔNRT strain on chloric acid-containing agar medium (FIG. 7)", "setting": "[4]", "value": "growth was also confirmed"}, {"measurement": "viability, ΔNRT strain", "setting": "[4]", "value": "− and ++"}]}]}
